Where a name gives a salt, the structure may show the parent alone.
Key:
Test in all cases: Post-emergence efficacy, glasshouse spray test
Format in all cases: in vivo
[1] = tested on: Chenopodium album (CHEAL); conditions: Chenopodium album, post-emergence, 312 h; application rate 1000 g/Ha; evaluated after 13 days; read-out: Control of weed species CHEAL after post-emergence application (100=total damage to plant; 0=no damage to plant)
In short: (§1)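 Plants grown 14 days in glasshouse (24/16 °C day/night, 14 h light, 65% humidity), then sprayed post-emergence with formula (I) formulated in IF50 and diluted in 0.25% or 1% Empicol ESC70 + 1% ammonium sulphate. Damage scored visually 13 days after spraying (0 = none, 100 = total).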

[2] = tested on: Lolium perenne (LOLPE); conditions: Lolium perenne, post-emergence, 312 h; application rate 1000 g/Ha; evaluated after 13 days; read-out: Control of weed species LOLPE after post-emergence application (100=total damage to plant; 0=no damage to plant)
In short: as §1

[3] = tested on: Amaranthus palmeri (AMAPA); conditions: Amaranthus palmeri, post-emergence, 312 h; application rate 1000 g/Ha; evaluated after 13 days; read-out: Control of weed species AMAPA after post-emergence application (100=total damage to plant; 0=no damage to plant)
In short: as §1

[4] = tested on: Digitaria sanguinalis (DIGSA); conditions: Digitaria sanguinalis, post-emergence, 312 h; application rate 1000 g/Ha; evaluated after 13 days; read-out: Control of weed species DIGSA after post-emergence application (100=total damage to plant; 0=no damage to plant)
In short: as §1

[5] = tested on: Ipomoea hederacea (IPOHE); conditions: Ipomoea hederacea, post-emergence, 312 h; application rate 1000 g/Ha; evaluated after 13 days; read-out: Control of weed species IPOHE after post-emergence application (100=total damage to plant; 0=no damage to plant)
In short: as §1

[6] = tested on: Echinochloa crus-galli (ECHCG); conditions: Echinochloa crus-galli, post-emergence, 312 h; application rate 1000 g/Ha; evaluated after 13 days; read-out: Control of weed species ECHCG after post-emergence application (100=total damage to plant; 0=no damage to plant)
In short: as §1

[7] = tested on: Eleusine indica (ELEIN); conditions: Eleusine indica, post-emergence, 312 h; application rate 1000 g/Ha; evaluated after 13 days; read-out: Control of weed species ELEIN after post-emergence application (100=total damage to plant; 0=no damage to plant)
In short: as §1

[8] = tested on: Euphorbia heterophylla (EPHHL); conditions: Euphorbia heterophylla, post-emergence, 312 h; application rate 1000 g/Ha; evaluated after 13 days; read-out: Control of weed species EPHHL after post-emergence application (100=total damage to plant; 0=no damage to plant)
In short: as §1

[9] = tested on: Setaria faberi (SETFA); conditions: Setaria faberi, post-emergence, 312 h; application rate 1000 g/Ha; evaluated after 13 days; read-out: Control of weed species SETFA after post-emergence application (100=total damage to plant; 0=no damage to plant)
In short: as §1

SMILES	pest or weed control at 1000 g/ha [1] [%]	pest or weed control at 1000 g/ha [2] [%]	pest or weed control at 1000 g/ha [3] [%]	pest or weed control at 1000 g/ha [4] [%]	pest or weed control at 1000 g/ha [5] [%]	pest or weed control at 1000 g/ha [6] [%]	pest or weed control at 1000 g/ha [7] [%]	pest or weed control at 1000 g/ha [8] [%]	pest or weed control at 1000 g/ha [9] [%]
O=S(=O)([O-])OCC[n+]1nc2ccccc2cc1Cl [Compound A111]	0	0	0	10	0	0	20	30	0
O=C(O)c1ccccc1C[n+]1ccc2ccccc2n1 [Compound A55]	30	0	10	10	30	20	10	30	0
COC(=O)CCC[n+]1ccc2ccccc2n1 [Compound A16, methyl 4-cinnolin-2-ium-2-ylbutanoate 2,2,2-trifluoroacetate]	70	20	50	40	10	50	60	40	50
Cc1ccc2n[n+](CC(=O)[O-])ccc2c1 [Compound A69]	0	0	30	30	0	40	30	40	30
CONC(=O)C[n+]1cc(C)c2cc(C)cc(C)c2n1 [Compound A5]	20	0	30	10	20	0	10	30	10
C[C@H](C[n+]1ccc2ccccc2n1)NS(=O)(=O)[O-] [Compound A46]	70	40	100	70	70	30	90	100	60
COc1c[n+](CCS(=O)(=O)[O-])nc2ccccc12 [Compound A38]	40	10	20	20	30	30	10	30	10
COC(=O)C[n+]1cc(C)c2cc(C)ccc2n1 [Compound A9]	60	10	10	40	20	10	70	50	10
O=S(=O)([O-])CCCC[n+]1ccc2ccccc2n1 [Compound A25]	60	50	50	20	50	0	60	30	30
O=S(=O)([O-])OC[n+]1ccc2ccccc2n1 [Compound A31, cinnolin-2-ium-2-ylmethyl hydrogen sulfate]	20	0	30	0	30	0	0	30	0
O=S(=O)([O-])CCC[n+]1ccc2ccccc2n1 [Compound A67]	90	80	100	80	80	60	80	70	80
COc1ccc2cc[n+](CCS(=O)(=O)[O-])nc2c1 [Compound A85]	100	20	100	20	70	20	40	80	30
O=S(=O)([O-])CC[n+]1ccc2c(F)cccc2n1 [Compound A81]	70	20	40	20	10	20	30	90	20
COC(=O)CC[n+]1cc(C)c2ccccc2n1 [Compound A63]	50	30	40	20	10	10	40	20	10
